According to PubChem BioAssay AID1963972 (Molecular Pharmacology Branch, DTP, NCI, 2024):

Tested on: 945468-187-T-J2-PDC spheroids viability
Assay: Anticancer human tumor 945468-187-T-J2-PDC patient-derived rectal carcinoma cell line growth inhibition [PI3K]
Settings: spheroids with HUVEC and MSC; for IC50: curve of first compound; for viability, T/C: stronger effect = lower value
How it was run: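 Three cell types, namely tumor cells, endothelial cells and mesenchymal stem cells, formed each spheroid. Combinations with four PI3K inhibitors were screened at clinically achievable concentrations decreasing by half-log, and spheroid viability was recorded.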

[1] = second compound 0.00316 µM, first compound 0.0316 µM
[2] = second compound 0.00316 µM, first compound 0.1 µM
[3] = second compound 0.00316 µM, first compound 0.316 µM
[4] = second compound 0.00316 µM, first compound 1 µM
[5] = second compound 0.00316 µM, first compound 3.16 µM
[6] = second compound 0.00316 µM, first compound 10 µM
[7] = second compound 0.01 µM, first compound 0.0316 µM
[8] = second compound 0.01 µM, first compound 0.1 µM
[9] = second compound 0.01 µM, first compound 0.316 µM
[10] = second compound 0.01 µM, first compound 1 µM
[11] = second compound 0.01 µM, first compound 3.16 µM
[12] = second compound 0.01 µM, first compound 10 µM
[13] = second compound 0.0316 µM, first compound 0.0316 µM
[14] = second compound 0.0316 µM, first compound 0.1 µM
[15] = second compound 0.0316 µM, first compound 0.316 µM
[16] = second compound 0.0316 µM, first compound 1 µM
[17] = second compound 0.0316 µM, first compound 3.16 µM
[18] = second compound 0.0316 µM, first compound 10 µM
[19] = second compound 0.1 µM, first compound 0.0316 µM
[20] = second compound 0.1 µM, first compound 0.1 µM
[21] = second compound 0.1 µM, first compound 0.316 µM
[22] = second compound 0.1 µM, first compound 1 µM
[23] = second compound 0.1 µM, first compound 3.16 µM
[24] = second compound 0.1 µM, first compound 10 µM
[25] = second compound 0.316 µM, first compound 0.0316 µM
[26] = second compound 0.316 µM, first compound 0.1 µM
[27] = second compound 0.316 µM, first compound 0.316 µM
[28] = second compound 0.316 µM, first compound 1 µM
[29] = second compound 0.316 µM, first compound 3.16 µM
[30] = second compound 0.316 µM, first compound 10 µM
[31] = second compound 1 µM, first compound 0.0316 µM
[32] = second compound 1 µM, first compound 0.1 µM
[33] = second compound 1 µM, first compound 0.316 µM
[34] = second compound 1 µM, first compound 1 µM
[35] = second compound 1 µM, first compound 3.16 µM
[36] = second compound 1 µM, first compound 10 µM
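Note: spheroids exposed to compounds for seven days before reading.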

## CC1(C)CCC(CN2CCN(c3ccc(C(=O)NS(=O)(=O)c4ccc(NCC5CCOCC5)c([N+](=O)[O-])c4)c(Oc4cnc5[nH]ccc5c4)c3)CC2)=C(c2ccc(Cl)cc2)C1 + COc1c(OCCCN2CCOCC2)ccc2c3n(c(=NC(=O)c4cnc(N)nc4)nc12)CCN3
Second compound 0.00316 µM
  IC50: > 10000 nM
Second compound 0.01 µM
  IC50: > 10000 nM
Second compound 0.0316 µM
  IC50: > 10000 nM
Second compound 0.1 µM
  IC50: > 10000 nM
Second compound 0.316 µM
  IC50: < 31.6 nM
Second compound 1 µM
  IC50: < 31.6 nM
[1]
  viability, T/C: 87.8%
[2]
  viability, T/C: 87.4%
[3]
  viability, T/C: 94.8%
[4]
  viability, T/C: 110%
[5]
  viability, T/C: 116%
[6]
  viability, T/C: 74.1%
[7]
  viability, T/C: 96.8%
[8]
  viability, T/C: 100%
[9]
  viability, T/C: 90.5%
[10]
  viability, T/C: 89.6%
[11]
  viability, T/C: 95.7%
[12]
  viability, T/C: 90.3%
[13]
  viability, T/C: 99.9%
[14]
  viability, T/C: 103%
[15]
  viability, T/C: 82.9%
[16]
  viability, T/C: 115%
[17]
  viability, T/C: 97%
[18]
  viability, T/C: 105%
[19]
  viability, T/C: 87.7%
[20]
  viability, T/C: 75%
[21]
  viability, T/C: 100%
[22]
  viability, T/C: 90.5%
[23]
  viability, T/C: 84.5%
[24]
  viability, T/C: 81.6%
[25]
  viability, T/C: 31.3%
[26]
  viability, T/C: 36.7%
[27]
  viability, T/C: 47.7%
[28]
  viability, T/C: 38.6%
[29]
  viability, T/C: 33%
[30]
  viability, T/C: 36.7%
[31]
  viability, T/C: 19.9%
[32]
  viability, T/C: 21.4%
[33]
  viability, T/C: 19.4%
[34]
  viability, T/C: 19.9%
[35]
  viability, T/C: 22.4%
[36]
  viability, T/C: 22.6%

## C[C@@H](NC(=O)c1ncnc(N)c1Cl)c1ncc(C(=O)Nc2cc(C(F)(F)F)c(Cl)cn2)s1 + COc1c(OCCCN2CCOCC2)ccc2c3n(c(=NC(=O)c4cnc(N)nc4)nc12)CCN3
Second compound 0.00316 µM
  IC50: > 10000 nM
Second compound 0.01 µM
  IC50: > 10000 nM
Second compound 0.0316 µM
  IC50: > 10000 nM
Second compound 0.1 µM
  IC50: > 10000 nM
Second compound 0.316 µM
  IC50: < 31.6 nM
Second compound 1 µM
  IC50: < 31.6 nM
[1]
  viability, T/C: 109%
[2]
  viability, T/C: 115%
[3]
  viability, T/C: 116%
[4]
  viability, T/C: 113%
[5]
  viability, T/C: 99.3%
[6]
  viability, T/C: 102%
[7]
  viability, T/C: 133%
[8]
  viability, T/C: 119%
[9]
  viability, T/C: 126%
[10]
  viability, T/C: 119%
[11]
  viability, T/C: 112%
[12]
  viability, T/C: 125%
[13]
  viability, T/C: 108%
[14]
  viability, T/C: 94.6%
[15]
  viability, T/C: 111%
[16]
  viability, T/C: 142%
[17]
  viability, T/C: 96%
[18]
  viability, T/C: 122%
[19]
  viability, T/C: 94%
[20]
  viability, T/C: 102%
[21]
  viability, T/C: 94.9%
[22]
  viability, T/C: 95%
[23]
  viability, T/C: 92.7%
[24]
  viability, T/C: 92%
[25]
  viability, T/C: 46%
[26]
  viability, T/C: 49.3%
[27]
  viability, T/C: 50.9%
[28]
  viability, T/C: 57.7%
[29]
  viability, T/C: 53.5%
[30]
  viability, T/C: 63.9%
[31]
  viability, T/C: 24.4%
[32]
  viability, T/C: 26.1%
[33]
  viability, T/C: 25.6%
[34]
  viability, T/C: 22%
[35]
  viability, T/C: 23.5%
[36]
  viability, T/C: 26.8%

## Cn1ncnc1[C@H]1c2n[nH]c(=O)c3cc(F)cc(c23)N[C@@H]1c1ccc(F)cc1 + COc1c(OCCCN2CCOCC2)ccc2c3n(c(=NC(=O)c4cnc(N)nc4)nc12)CCN3
Second compound 0.00316 µM
  IC50: > 100 nM
Second compound 0.01 µM
  IC50: > 100 nM
Second compound 0.0316 µM
  IC50: > 100 nM
Second compound 0.1 µM
  IC50: > 100 nM
Second compound 0.316 µM
  IC50: < 0.316 nM
Second compound 1 µM
  IC50: < 0.316 nM
Second compound 0.00316 µM, first compound 0.000316 µM
  viability, T/C: 107%
Second compound 0.00316 µM, first compound 0.001 µM
  viability, T/C: 114%
Second compound 0.00316 µM, first compound 0.00316 µM
  viability, T/C: 90.7%
Second compound 0.00316 µM, first compound 0.01 µM
  viability, T/C: 104%
[1]
  viability, T/C: 97.3%
[2]
  viability, T/C: 108%
Second compound 0.01 µM, first compound 0.000316 µM
  viability, T/C: 105%
Second compound 0.01 µM, first compound 0.001 µM
  viability, T/C: 128%
Second compound 0.01 µM, first compound 0.00316 µM
  viability, T/C: 101%
Second compound 0.01 µM, first compound 0.01 µM
  viability, T/C: 84%
[7]
  viability, T/C: 98.4%
[8]
  viability, T/C: 96.8%
Second compound 0.0316 µM, first compound 0.000316 µM
  viability, T/C: 98.7%
Second compound 0.0316 µM, first compound 0.001 µM
  viability, T/C: 107%
Second compound 0.0316 µM, first compound 0.00316 µM
  viability, T/C: 85.3%
Second compound 0.0316 µM, first compound 0.01 µM
  viability, T/C: 104%
[13]
  viability, T/C: 95.2%
[14]
  viability, T/C: 88.5%
Second compound 0.1 µM, first compound 0.000316 µM
  viability, T/C: 93.2%
Second compound 0.1 µM, first compound 0.001 µM
  viability, T/C: 75.7%
Second compound 0.1 µM, first compound 0.00316 µM
  viability, T/C: 83.6%
Second compound 0.1 µM, first compound 0.01 µM
  viability, T/C: 81.3%
[19]
  viability, T/C: 84.3%
[20]
  viability, T/C: 88.1%
Second compound 0.316 µM, first compound 0.000316 µM
  viability, T/C: 34%
Second compound 0.316 µM, first compound 0.001 µM
  viability, T/C: 35.2%
Second compound 0.316 µM, first compound 0.00316 µM
  viability, T/C: 43.5%
Second compound 0.316 µM, first compound 0.01 µM
  viability, T/C: 39.3%
[25]
  viability, T/C: 39.3%
[26]
  viability, T/C: 44%
Second compound 1 µM, first compound 0.000316 µM
  viability, T/C: 21%
Second compound 1 µM, first compound 0.001 µM
  viability, T/C: 19.7%
Second compound 1 µM, first compound 0.00316 µM
  viability, T/C: 23.7%
Second compound 1 µM, first compound 0.01 µM
  viability, T/C: 22.8%
[31]
  viability, T/C: 20.2%
[32]
  viability, T/C: 20.8%
